Test results from ChEMBL document CHEMBL1131693, “Synthesis and methemoglobin toxicity of the amides of 6/7 mono or disubstituted quinolone” (1999).

Assays:
Canis familiaris [1] = species: Canis familiaris; test: In vitro activity on methemoglobin formation at 1 mM concentration in blood from a normal Beagle dog; format: functional, Canis lupus familiaris
Canis familiaris [2] = species: Canis familiaris; test: In vitro activity on methemoglobin formation at 5 mM concentration in blood from a normal Beagle dog; format: functional, Canis lupus familiaris
Canis lupus familiaris = species: Canis lupus familiaris; test: In vitro activity against canine methemoglobin reductase at 33 uM; parameters: unit not given here
Canis familiaris [3] = species: Canis familiaris; test: In vitro activity on methemoglobin formation at 1 mM concentration in blood from a normal Beagle dog; Nil; format: functional
Canis familiaris [4] = species: Canis familiaris; test: In vitro activity on methemoglobin formation at 5 mM concentration in blood from a normal Beagle dog; Nil; format: functional; settings: Canis lupus familiaris

SMILES	Activity (Canis lupus familiaris)	Methemoglobin (Canis familiaris [1]) [%]	Methemoglobin (Canis familiaris [2]) [%]	Methemoglobin (Canis familiaris [3]; Canis lupus familiaris)	Methemoglobin (Canis familiaris [4])	Methemoglobin (Canis familiaris [3]) [%]
CCN(CC)CCCC(C)NC(=O)c1cnc2ccc(F)cc2c1O (stereo unspecified)	0.064	1.7	22.4	–	–	–
O=C(NC1CCCCC1)c1cnc2cc(Cl)c(F)cc2c1O	0.064	–	–	Nil	Nil	–
CCCCCCCCNC(=O)c1cnc2cc(Cl)c(F)cc2c1O	0.064	–	29.3	–	–	1.7
CCCCCCCCNC(=O)c1cnc2ccc(F)cc2c1O	0.064	–	18.9	Nil	–	–
CCN(CC)CCCC(C)NC(=O)c1cnc2ccc([N+](=O)[O-])cc2c1O (stereo unspecified)	0.064	–	5.17	Nil	–	–
CCN(CC)CCCC(C)NC(=O)c1cnc2cc(Cl)c(F)cc2c1O (stereo unspecified)	0.064	–	16.9	Nil	–	–
CCCCCCCCNC(=O)c1cnc2ccc([N+](=O)[O-])cc2c1O	0.064	–	7.7	Nil	–	–
O=C(NC1CCCCC1)c1cnc2ccc([N+](=O)[O-])cc2c1O	0.064	–	6.8	Nil	–	–

More lines, main results first:

Activity (Canis lupus familiaris)	SMILES	Methemoglobin (Canis familiaris [1]) [%]	Methemoglobin (Canis familiaris [2]) [%]	Methemoglobin (Canis familiaris [3]; Canis lupus familiaris)	Methemoglobin (Canis familiaris [4])	Methemoglobin (Canis familiaris [3]) [%]
0.064	CN1CCN(C(=O)c2cnc3ccc([N+](=O)[O-])cc3c2O)CC1	–	8.6	Nil	–	–
0.064	O=C(NC1CCCCC1)c1cnc2ccc(F)cc2c1O	–	1.5	Nil	–	–
0.064	CN1CCN(C(=O)c2cnc3cc(Cl)c(F)cc3c2O)CC1	–	–	Nil	Nil	–
0.064	CN1CCN(C(=O)c2cnc3ccc(F)cc3c2O)CC1	–	2	Nil	–	–
